Tests used:
KinL = target: T1, KinL (Streptomyces murayamaensis, UniProt A0A385LSP3); experiment: LC-HRMS of culture supernatant of E. coli expressing KinL; assay type: cell-based; conditions: 1 mM acetylhydrazine, 1 mM glutamic acid, 15 °C overnight; empty-vector control
T1 construct: pET28a in live E. coli BL21(DE3), not purified
T1 sequence (A0A385LSP3 1-500): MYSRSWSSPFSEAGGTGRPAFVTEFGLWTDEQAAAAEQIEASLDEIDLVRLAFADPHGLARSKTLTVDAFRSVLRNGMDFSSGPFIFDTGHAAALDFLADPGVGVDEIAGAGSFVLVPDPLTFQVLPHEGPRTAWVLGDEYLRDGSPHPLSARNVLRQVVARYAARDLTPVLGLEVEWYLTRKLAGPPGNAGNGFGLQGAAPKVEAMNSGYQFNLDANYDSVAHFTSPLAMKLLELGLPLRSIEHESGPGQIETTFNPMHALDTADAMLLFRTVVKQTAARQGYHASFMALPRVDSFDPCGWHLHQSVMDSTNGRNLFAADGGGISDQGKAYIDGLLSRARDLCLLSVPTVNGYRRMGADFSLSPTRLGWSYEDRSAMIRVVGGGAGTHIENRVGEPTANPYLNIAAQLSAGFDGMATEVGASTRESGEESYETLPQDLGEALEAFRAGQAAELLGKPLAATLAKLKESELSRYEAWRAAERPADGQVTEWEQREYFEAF

FzmA = conditions: 21 µM enzyme, 5 mM substrate, 5 mM arginine, 6 mM MgCl2, 6 mM ATP, 50 mM NaH2PO4 pH 7.7, 21 h; hydrolysis to glutamic acid
Sequence of FzmA (U5YQM4 entry or part of it): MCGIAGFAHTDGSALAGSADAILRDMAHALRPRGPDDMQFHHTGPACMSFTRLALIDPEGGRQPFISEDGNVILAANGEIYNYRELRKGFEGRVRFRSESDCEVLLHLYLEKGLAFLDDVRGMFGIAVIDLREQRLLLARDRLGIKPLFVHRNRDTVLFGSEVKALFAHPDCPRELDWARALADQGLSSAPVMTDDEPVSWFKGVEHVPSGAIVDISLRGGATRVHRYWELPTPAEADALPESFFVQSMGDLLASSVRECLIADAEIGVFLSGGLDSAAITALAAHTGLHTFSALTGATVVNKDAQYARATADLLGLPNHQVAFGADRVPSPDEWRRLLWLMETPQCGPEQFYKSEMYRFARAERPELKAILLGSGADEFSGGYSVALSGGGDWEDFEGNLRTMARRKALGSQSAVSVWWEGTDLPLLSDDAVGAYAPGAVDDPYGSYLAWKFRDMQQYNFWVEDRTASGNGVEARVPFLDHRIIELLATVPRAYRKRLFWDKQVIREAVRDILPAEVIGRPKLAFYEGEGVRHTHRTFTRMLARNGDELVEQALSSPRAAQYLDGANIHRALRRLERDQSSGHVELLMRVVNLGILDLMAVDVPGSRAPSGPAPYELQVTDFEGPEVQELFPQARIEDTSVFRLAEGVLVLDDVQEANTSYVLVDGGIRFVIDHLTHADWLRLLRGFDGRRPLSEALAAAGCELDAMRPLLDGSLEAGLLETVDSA

Row | Compound | LC-HRMS of culture supernatant of E. coli expressing KinL (KinL) | LC-MS after Fmoc-Cl derivatization (FzmA)
1 | CC(=O)NN [acetylhydrazine] | observed in culture supernatants only when KinL was expressed and acetylhydrazine was present | 
2 | NNC(=O)CC[C@H](N)C(=O)O [compound 6, glutamylhydrazine] |  | FzmA clearly has the ability to liberate hydrazine from glutamylhydrazine

From paper PMC6133997, “Glutamic acid is a carrier for hydrazine during the biosyntheses of fosfazinomycin and kinamycin” (Nature Communications, 2018)
